From patent US10076519B2 (CYTOKINETICS, INC., priority 2010, dated 2018)

These compounds were tested on rabbit skeletal myofibrils (fast skeletal myofibrils) (assay: Activation of fast skeletal myofibrils (PUMA assay, PK/LDH-coupled ATPase at pCa25)). Conditions: AC1.4 determined according to the procedure of Example 39; reported as class symbols.
Assay type: biochemical
In short: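 Detergent-washed rabbit psoas myofibrils (~90% fast fibres, calcium-regulated) assayed at calcium giving 25% of maximal ATPase rate (pCa25). ADP turnover coupled via pyruvate kinase/lactate dehydrogenase to NADH oxidation, read at 340 nm. Buffer 12 mM PIPES, 2 mM MgCl2, 1 mM DTT, pH 6.8; AC1.4 values derived.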

SMILES	Mean AC1.4
CC(C)(CNc1ccc(-c2ccc3[nH]nc(NS(C)(=O)=O)c3c2)nn1)c1ccc(F)cc1 [[5-(6-{[2-(4-fluorophenyl)-2-methylpropyl]amino}pyridazin-3-yl)(1H-indazol-3-yl)](methylsulfonyl)amine]	A (A=<1 uM)
CC(C)(CNc1ccc(C(=O)N2CCOCC2)nn1)c1ccc(F)cc1 [6-{[2-(4-fluorophenyl)-2-methylpropyl]amino}pyridazin-3-yl morpholin-4-yl ketone]	D (D=>20 uM)
Cc1ccc(C(N)=O)cc1-c1ccc(NCC2(c3ncccc3F)CCC2)nn1	B (B=1-10 uM)
CC(=O)Nc1ccc(-c2ccc(NCC(C)(C)c3ccc(F)cc3)nn2)cn1 [N-[5-(6-{[2-(4-fluorophenyl)-2-methylpropyl]amino}pyridazin-3-yl)-2-pyridyl]acetamide]	B (B=1-10 uM)
Fc1cccnc1C1(CNc2ccc(-c3cn[nH]c3)nn2)CCC1 [{[(3-fluoro(2-pyridyl))cyclobutyl]methyl}(6-pyrazol-4-ylpyridazin-3-yl)amine]	C (C=10-20 uM)
COCc1ccccc1C(C)(C)CNc1ccc(-c2ccc3[nH]nc(N)c3c2)nn1 [[6-(3-amino(1H-indazol-5-yl))pyridazin-3-yl]{2-[2-(methoxymethyl)phenyl]-2-methylpropyl}amine]	C (C=10-20 uM)
NCC(=O)Nc1n[nH]c2ccc(-c3ccc(NCC4(c5ncccc5F)CCC4)nn3)cc12	B (B=1-10 uM)
CC(C)(CNc1ccc(-c2ccc3oc(=O)[nH]c3c2)nn1)c1ccc(F)cc1	B (B=1-10 uM)
CC(C)(CNc1ccc(-c2cccc(C(=O)N3CCCCC3)c2)nn1)c1ccc(F)cc1 [3-(6-{[2-(4-fluorophenyl)-2-methylpropyl]amino}pyridazin-3-yl)phenyl piperidyl ketone]	B (B=1-10 uM)
CC(C)(CNc1ccc(-c2ccc3[nH]nc(N)c3c2)nn1)c1ccc(CO)cc1	D (D=>20 uM)
CC(C)(CNc1ccc(C(N)=O)nn1)c1ccc(F)cc1 [6-{[2-(4-fluorophenyl)-2-methylpropyl]amino}pyridazine-3-carboxamide]	C (C=10-20 uM)
Fc1cccnc1C1(CNc2ccc(-c3ccc4n[nH]nc4c3)nn2)CCC1 [(6-benzotriazol-6-ylpyridazin-3-yl){[(3-fluoro(2-pyridyl))cyclobutyl]methyl}amine]	A (A=<1 uM)
CC(C)(CNc1ccc(-c2cccc(C(N)=O)c2)nn1)c1ccccc1F [3-(6-{[2-(2-fluorophenyl)-2-methylpropyl]amino}pyridazin-3-yl)benzamide]	A (A=<1 uM)
O=c1ncc(-c2ccc(NCC3(c4ccc(F)cc4)CCC3)nn2)c[nH]1	B (B=1-10 uM)
CC(C)(CNc1ccc(-c2cccc(F)c2)nn1)c1ccc(F)cc1 [[2-(4-fluorophenyl)-2-methylpropyl][6-(3-fluorophenyl)pyridazin-3-yl]amine]	A (A=<1 uM)
COC(=O)N1CC(CNc2ccc(-c3cccc(C(N)=O)c3)nn2)(c2ncccc2F)C1 [methyl 3-({[6-(3-carbamoylphenyl)pyridazin-3-yl]amino}methyl)-3-(3-fluoro(2-pyridyl))azetidinecarboxylate]	D (D=>20 uM)
N#Cc1ccc(C2(CNc3ccc(-c4ccc5[nH]ncc5c4)nn3)CCC2)nc1	B (B=1-10 uM)
CC(C)(CNc1ccc(-c2cccc3[nH]ncc23)nn1)c1ccc(F)cc1 [(6-(1H-indazol-4-yl)pyridazin-3-yl)[2-(4-fluorophenyl)-2-methylpropyl]amine]	A (A=<1 uM)
CCCC(CNc1ccc(-c2cccc(C(N)=O)c2)nn1)c1ccccc1Cl (stereo not drawn)	B (B=1-10 uM)

Same assay, conditions: median AC1.4 class, procedure of Example 39

SMILES	Mean AC1.4
O=C(c1cnc(-c2ccc(NCC3(c4ncccc4F)CCC3)nn2)s1)N1CCC(O)CC1 [2-[6-({[(3-fluoro(2-pyridyl))cyclobutyl]methyl}ami-no)pyridazin-3-yl](1,3-thiazol-5-yl) 4-hydroxypiperidyl ketone]	C (C=10-20 uM)
CC(C)(Nc1ccc(-c2cccc(C(N)=O)c2)nn1)c1ccccc1 [3-{6-[(1-methyl-1-phenylethyl)amino]pyridazin-3-yl}benzamide]	B (B=1-10 uM)
Fc1cccnc1C1(CNc2ccc(-c3ncc(-c4nn[nH]n4)s3)nn2)CCC1 [[6-(5-(2H-1,2,3,4-tetraazol-5-yl)(1,3-thiazol-2-yl))pyridazin-3-yl]{[(3-fluoro(2-pyridyl))cyclobutyl]methyl}amine]	B (B=1-10 uM)
NC(=O)Nc1ccc(-c2ccc(NCC3(c4ncccc4F)CCC3)nn2)cn1	B (B=1-10 uM)
NC(=O)c1cccc(-c2ccc(NC3(c4ccccc4)CCC3)nn2)c1	B (B=1-10 uM)
O=c1[nH]nc(-c2cnc(-c3ccc(NCC4(c5ncccc5F)CCC4)nn3)s2)[nH]1 [3-{2-[6-({[(3-fluoro-2-pyridyl)cyclobutyl]methyl}ami-no)pyridazin-3-yl]-1,3-thiazol-5-yl}-1,2,4-triazolin-5-one]	A (A=<1 uM)
O=C(NCc1cnc(-c2ccc(NCC3(c4ncccc4F)CCC3)nn2)s1)c1cnc(O)[nH]1 [N-({2-[6-({[(3-fluoro(2-pyridyl))cyclobutyl]methyl}ami-no)pyridazin-3-yl](1,3-thiazol-5-yl)}methyl)(2-hydroxyimidazol-5-yl)carboxamide]	A (A=<1 uM)
NC(=O)c1cnc(-c2ccc(NC3(c4ncccc4F)CCC3)nn2)s1 [2-(6-{[(3-fluoro-2-pyridyl)cyclobutyl]amino}pyr-idazin-3-yl)-1,3-thiazole-5-carboxamide]	B (B=1-10 uM)
COc1ccc(-c2ccc(NCC3(c4ncccc4F)CCC3)nn2)cc1C(=O)O	D (D=>20 uM)
NC(=O)c1cc(-c2ccc(NCC3(c4ncccc4F)CCC3)nn2)on1	B (B=1-10 uM)
CS(=O)(=O)Nc1nccc(-c2ccc(NCC3(c4ncccc4F)CCC3)nn2)n1 [{4-[6-({[(3-fluoro(2-pyridyl))cyclobutyl]methyl}ami-no)pyridazin-3-yl]pyrimidin-2-yl}(methylsulfonyl)amine]	D (D=>20 uM)
NC(=O)NC1CC(c2ccc(NCC3(c4ncccc4F)CCC3)nn2)C1 (stereo not drawn)	C (C=10-20 uM)
NS(=O)(=O)Nc1ccc(F)c(-c2ccc(NCC3(c4ncccc4F)CCC3)nn2)c1 [amino{4-fluoro-3-[6-({[(3-fluoro(2-pyridyl))cyclobutyl]methyl}ami-no)pyridazin-3-yl]phenyl}sulfonamide]	A (A=<1 uM)
O=C(NCc1cnc(-c2ccc(NCC3(c4ncccc4F)CCC3)nn2)s1)c1ncc[nH]1 [N-({2-[6-({[(3-fluoro(2-pyridyl))cyclobutyl]methyl}ami-no)pyridazin-3-yl](1,3-thiazol-5-yl)}methyl)imidazol-2-ylcarboxamide]	A (A=<1 uM)
NC(=O)c1cc(-c2ccc(NCC3(c4ncccc4F)CCC3)nn2)no1	A (A=<1 uM)

Same assay, conditions: median AC1.4 reported as class; procedure of Example 39

SMILES	Mean AC1.4
CC(C)(O)CNC(=O)c1cccc(-c2ccc(NC[C@]3(c4ncccc4F)C[C@H](F)C3)nn2)c1 [{3-[6-({[3-fluoro-1-(3-fluoro(2-pyridyl))cyclobutyl]methyl}ami-no)pyridazin-3-yl]phenyl}-N-(2-hydroxy-2-methylpropyl)carboxamide]	B (B=1-10 uM)
NC(=O)c1cccc(-c2ccc(NCC3(c4ncccc4F)CCC3)nn2)c1O [3-[6-({[(3-fluoro(2-pyridyl))cyclobutyl]methyl}ami-no)pyridazin-3-yl]-2-hydroxybenzamide]	A (A=<1 uM)
NC(=O)Cc1cnc(-c2ccc(NC[C@]3(c4ncccc4Cl)C[C@H](F)C3)nn2)s1 [2-{2-[6-({[1-(3-chloro(2-pyridyl))-3-fluorocyclobutyl]methyl}ami-no)pyridazin-3-yl]-1,3-thiazol-5-yl}acetamide]	B (B=1-10 uM)
O=c1cc(-c2ccc(NCC3(c4ncccc4F)CCC3)nn2)nc2[nH]ccn12 [7-[6-({[(3-fluoro-2-pyridyl)cyclobutyl]methyl}ami-no)pyridazin-3-yl]-4-hydro-4-imidazolino[1,2-a]pyrimidin-5-one]	B (B=1-10 uM)
O=C(NCc1ccn[nH]1)c1ccc(NCC2(c3ncccc3F)CCC2)nn1 [[6-({[(3-fluoro(2-pyridyl))cyclobutyl]methyl}ami-no)pyridazin-3-yl]-N-(pyrazol-5-ylmethyl)carboxamide]	D (D=>20 uM)
CCOC(=O)Cc1nnc(NC(=O)c2ccc(NCC3(c4ncccc4F)CCC3)nn2)s1 [ethyl 2-(5-{[6-({[(3-fluoro-2-pyridyl)cyclobutyl]methyl}ami-no)pyridazin-3-yl]carbonylamino}-1,3,4-thiadiazol-2-yl)acetate]	D (D=>20 uM)
NC(=O)c1coc(NC(=O)c2ccc(NCC3(c4ncccc4F)CCC3)nn2)n1 [2-{[6-({[(3-fluoro-2-pyridyl)cyclobutyl]methyl}amino)pyr-idazin-3-yl]carbonylamino}-1,3-oxazole-4-carboxamide]	D (D=>20 uM)
N#Cc1cn[nH]c1NC(=O)c1ccc(NCC2(c3ncccc3F)CCC2)nn1 [N-(4-cyanopyrazol-5-yl)[6-({[(3-fluoro(2-pyridyl))cyclobutyl]methyl}ami-no)pyridazin-3-yl]carboxamide]	B (B=1-10 uM)
O=C(NC1CCOCC1)c1cccc(-c2ccc(NC[C@]3(c4ncccc4F)C[C@H](F)C3)nn2)c1 [N-(2H-3,4,5,6-tetrahydropyran-4-yl){3-[6-({[3-fluoro-1-(3-fluoro(2-pyridyl))cyclobutyl]methyl}ami-no)pyridazin-3-yl]phenyl}carboxamide]	B (B=1-10 uM)
Cc1cc(NCC2(c3ncccc3F)CCC2)nnc1-c1ncc(C(N)=O)s1 [2-[6-({[(3-fluoro(2-pyridyl))cyclobutyl]methyl}amino)-4-methylpyridazin-3-yl]-1,3-thiazole-5-carboxamide]	A (A=<1 uM)
Cc1cc(NCC2(c3ncccc3F)CCC2)nnc1-c1ncc(CC(=O)O)s1 [2-{2-[6-({[(3-fluoro(2-pyridyl))cyclobutyl]methyl}amino)-4-methylpyridazin-3-yl]-1,3-thiazol-5-yl}acetic acid]	B (B=1-10 uM)
